Read-outs that look alike come from different tables or passages of the source.
How the values were obtained:
[1] = biological target: T1, hRORg (Homo sapiens, UniProt P51449); experiment: GAL4-RORγ transactivation (luciferase reporter, HG5LN HeLa line); format: cell-based; conditions: HG5LN cells, 18 hours incubation, luciferase luminescence
T1 construct: expressed in transfected cells; host or cells: HG5LN (HeLa line with a GAL4-driven luciferase reporter)
T1 sequence (P51449 269-508 limits assumed): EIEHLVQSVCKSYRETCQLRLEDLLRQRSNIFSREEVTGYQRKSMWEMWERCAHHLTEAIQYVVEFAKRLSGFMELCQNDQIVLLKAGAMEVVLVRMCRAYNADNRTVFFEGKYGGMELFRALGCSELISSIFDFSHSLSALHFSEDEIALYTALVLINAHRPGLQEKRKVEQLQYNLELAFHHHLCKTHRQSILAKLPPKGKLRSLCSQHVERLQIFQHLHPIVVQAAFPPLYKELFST
Source text: GAL4-RORγ Transactivation
The RORγ transactivation model was developed from the line HG5LN, which is a HeLa line that stably expresses a luciferase reporter gene controlled by a pentamer of the GAL4 recognition domain of yeast and of a β-globin promoter. The HG5LN line was stably transfected by the DNA-binding domain (DBD) of GAL4 fused to the ROR gamma ligand-binding domain (LBD). Molecules that inhibit the ROR gamma constitutive activity reduce the luciferase expression, thus leading to a reduction in the emitted luminescence.
The cells are seeded in 384-well plates (5000 cells in 45 μL/well of culture medium containing 10% fetal calf serum) and incubated for 4 hours at 37° C., 5% CO2. 5 μL of the test molecules (compounds described in the tables described above) are then added to each well and the plates are incubated for 18 hours at a temperature of 37° C. under 5% of CO2. 20 μL of luciferase substrate (Promega) are added to each well and the luminescence emitted is read by a microplate reader.
The luminescence units (“RLU”) are normalized by positive controls (“POS” containing a saturated concentration of N-(2,2,2-trifluoroethyl)-N-[4-[2,2,2-trifluoro-1-hydroxy-1-(trifluoromethyl)ethyl]phenyl]benzenesulfonamide) and negative controls (“NEG” containing DMSO): % inhibition=((RLU-NEG)*100)/(POS-NEG). The IC50 values are calculated from a 4-parameter logistic model using the XLFit software (IDBS).

[2] = tested on: IL-17A secretion by CD4+ cells; experiment: IL-17A secretion by CD4+ cells (HTRF); format: cell-based; conditions: human CD4+ cells activated with anti-CD3 and anti-CD28, 4 days of incubation, IL-17A by HTRF, read-out: IC50 hCD4/IL17
Description: This model allows measurement of the effect of inhibitors on IL-17A secretion by CD4+ cells. The cells are frozen CD4+ cells (STEMCELL, #70026), isolated from peripheral human blood and activated with anti-CD3 and anti-CD28 antibodies. The amount of IL-17A secreted is measured by the TR-FRET (kit HTRF® Human Interleukin 17A (Cisbio, #64H17PEC)) technology.
The cells are rapidly thawed, resuspended in their culture medium (RPMI inactivated 10% FCS) supplemented with soluble anti-CD28 antibodies and seeded (100 000 cells/well) in 96-well plates precoated with anti-CD3 antibodies. The cells are then treated with the ranges of inhibitors to be tested (from 1000 nM to 0.05 nM, 0.1% DMSO). After 4 days of incubation, the HTRF signal is measured using a microplate reader (excitation=337 nm, λemission=620/665 nm). The ratios obtained (665/620) are normalized relative to the positive control (cells activated with anti-CD3 and anti-CD28, 0.1% DMSO). The IC50 values are calculated from a 4-parameter logistic model using the XLFit software (IDBS).

Row | IC50 [1] | IC50 ([2]; Homo sapiens, 96 h) | IC50 [2] | Structure (SMILES)
1 | > 1000 nM |  |  | CCc1ccc(N(CC(C)C)S(=O)(=O)c2ccc3c(c2)n(CC2CCOCC2)c(=O)n3C)cc1 [Compound 1, 1-methyl-2-oxo-3-(tetrahydropyran-4-ylmethyl)-2,3-dihydro-1H-benzimidazole-5-sulfonic acid (4-ethylphenyl)isobutylamide]
2 | < 100 nM | < 100 nM |  | CCc1ccc(N(CC(C)C)S(=O)(=O)c2ccc3c(c2)[nH]c(=O)n3CC2CCOCC2)cc1 [Compound 2, 2-oxo-1-(tetrahydropyran-4-ylmethyl)-2,3-dihydro-1H-benzimidazole-5-sulfonic acid (4-ethylphenyl)isobutylamide]
3 | 100 to 1000 nM | < 100 nM |  | CCc1ccc(N(CC(C)C)S(=O)(=O)c2ccc3[nH]c(=O)n(CC4CCOCC4)c3c2)cc1 [Compound 3, 2-oxo-3-(tetrahydropyran-4-ylmethyl)-2,3-dihydro-1H-benzimidazole-5-sulfonic acid (4-ethylphenyl)isobutylamide]
4 | < 100 nM | < 100 nM |  | CCc1ccc(N(CC(C)C)S(=O)(=O)c2ccc3c(c2)[nH]c(=O)n3CC2(C)CCOCC2)cc1 [Compound 4, 1-(4-methyltetrahydropyran-4-ylmethyl)-2-oxo-2,3-dihydro-1H-benzimidazole-5-sulfonic acid (4-ethylphenyl)isobutylamide]
5 | < 100 nM | < 100 nM |  | CCc1ccc(N(CC(C)C)S(=O)(=O)c2ccc3c(c2)[nH]c(=O)n3CC2(F)CCOCC2)cc1 [Compound 5, 1-(4-fluorotetrahydropyran-4-ylmethyl)-2-oxo-2,3-dihydro-1H-benzimidazole-5-sulfonic acid (4-ethylphenyl)isobutylamide]
6 | < 100 nM |  |  | CCc1ccc(N(CC(C)C)S(=O)(=O)c2ccc3c(c2)[nH]c(=O)n3C[C@H]2[C@@H]3COC[C@@H]32)cc1 [Compound 6, 1-[(1R,5S,6S)-1-(3-oxabicyclo[3.1.0]hex-6-yl)methyl]-2-oxo-2,3-dihydro-1H-benzimidazole-5-sulfonic acid (4-ethylphenyl)isobutylamide]
7 | < 100 nM | < 100 nM |  | CCc1ccc(N(CC(C)C)S(=O)(=O)c2ccc3c(c2)[nH]c(=O)n3CC2COC2)cc1 [Compound 7, 1-oxetan-3-ylmethyl-2-oxo-2,3-dihydro-1H-benzimidazole-5-sulfonic acid (4-ethylphenyl)isobutylamide]
8 | < 100 nM |  |  | CCc1ccc(N(CC(C)C)S(=O)(=O)c2ccc3c(c2)[nH]c(=O)n3CC2COC(=O)O2)cc1 (stereo not shown) [Compound 8, 2-oxo-1-(2-oxo[1,3]dioxolan-4-ylmethyl)-2,3-dihydro-1H-benzimidazole-5-sulfonic acid (4-ethylphenyl)isobutylamide]
9 | > 1000 nM |  |  | CCc1ccc(N(CC(C)C)S(=O)(=O)c2ccc3c(c2)[nH]c(=O)n3CC2CNC(=O)O2)cc1 (stereo not shown) [Compound 9, 2-oxo-1-(2-oxooxazolidin-5-ylmethyl)-2,3-dihydro-1H-benzimidazole-5-sulfonic acid (4-ethylphenyl)isobutylamide]
10 | 100 to 1000 nM | < 100 nM |  | CCc1ccc(N(CC(C)C)S(=O)(=O)c2ccc3c(c2)[nH]c(=O)n3Cc2ccncc2)cc1 [Compound 10, 2-oxo-1-pyridin-4-ylmethyl-2,3-dihydro-1H-benzimidazole-5-sulfonic acid (4-ethylphenyl)isobutylamide]
11 | > 1000 nM |  |  | CCc1ccc(N(CC(C)C)S(=O)(=O)c2ccc3c(c2)[nH]c(=O)n3C2CCOCC2)cc1 [Compound 11, 2-oxo-1-(tetrahydropyran-4-yl)-2,3-dihydro-1H-benzimidazole-5-sulfonic acid (4-ethylphenyl)isobutylamide]
12 | > 1000 nM |  |  | CCc1ccc(N(CC(C)C)S(=O)(=O)c2ccc3c(c2)[nH]c(=O)n3C2CCN(C(=O)OC(C)(C)C)CC2)cc1 [Compound 12, tert butyl ester of 4-{5-[(4-ethylphenyl)isobutylsulfamoyl]-2-oxo-2,3-dihydrobenzimidazol-1-yl}piperidine-1-carboxylic acid]
13 | > 1000 nM |  |  | CCc1ccc(N(CC(C)C)S(=O)(=O)c2ccc3c(c2)[nH]c(=O)n3C2CCNCC2)cc1 [Compound 13, 2-oxo-1-piperidin-4-yl-2,3-dihydro-1H-benzimidazole-5-sulfonic acid (4-ethylphenyl)isobutylamide]
14 | > 1000 nM |  |  | CCc1ccc(N(CC(C)C)S(=O)(=O)c2ccc3c(c2)[nH]c(=O)n3C2CCN(S(C)(=O)=O)CC2)cc1 [Compound 14, 1-(1-methanesulfonylpiperidin-4-yl)-2-oxo-2,3-dihydro-1H-benzimidazole-5-sulfonic acid (4-ethylphenyl)isobutylamide]
15 | < 100 nM | < 100 nM |  | CCc1ccc(N(C2CCCC2)S(=O)(=O)c2ccc3c(c2)[nH]c(=O)n3CC2CCOCC2)cc1 [Compound 15, 2-oxo-1-(tetrahydropyran-4-ylmethyl)-2,3-dihydro-1H-benzimidazole-5-sulfonic acid (4-ethylphenyl)cyclopentylamide]
16 | < 100 nM | < 100 nM |  | CCc1ccc(N(C(CC)CC)S(=O)(=O)c2ccc3c(c2)[nH]c(=O)n3CC2CCOCC2)cc1 [Compound 16, 2-oxo-1-(tetrahydropyran-4-ylmethyl)-2,3-dihydro-1H-benzimidazole-5-sulfonic acid (4-ethylphenyl)(1-ethylpropyl)amide]
17 | < 100 nM | < 100 nM |  | Cc1ccc(N(CC(C)C)S(=O)(=O)c2ccc3c(c2)[nH]c(=O)n3CC2CCOCC2)c(C)c1 [Compound 17, 2-oxo-1-(tetrahydropyran-4-ylmethyl)-2,3-dihydro-1H-benzimidazole-5-sulfonic acid (2,4-dimethylphenyl)isobutylamide]
18 | < 100 nM | < 100 nM |  | Cc1ccc(N(C2CCCC2)S(=O)(=O)c2ccc3c(c2)[nH]c(=O)n3CC2CCOCC2)c(C)c1 [Compound 18, 2-oxo-1-(tetrahydropyran-4-ylmethyl)-2,3-dihydro-1H-benzimidazole-5-sulfonic acid cyclopentyl(2,4-dimethylphenyl)amide]
19 | < 100 nM | < 100 nM |  | CCC(CC)N(c1ccc(C)cc1C)S(=O)(=O)c1ccc2c(c1)[nH]c(=O)n2CC1CCOCC1 [Compound 19, 2-oxo-1-(tetrahydropyran-4-ylmethyl)-2,3-dihydro-1H-benzimidazole-5-sulfonic acid (2,4-dimethylphenyl)(1-ethylpropyl)amide]
20 | < 100 nM | < 100 nM |  | CCc1ccc(N(CC(C)C)S(=O)(=O)c2ccc3c(c2)[nH]c(=O)n3CC2CCS(=O)(=O)CC2)cc1 [Compound 20, 1-(1,1-dioxohexahydro-1λ^6-thiopyran-4-ylmethyl)-2-oxo-2,3-dihydro-1H-benzimidazole-5-sulfonic acid (4-ethylphenyl)isobutylamide]
21 | 100 to 1000 nM |  | 100 to 1000 nM | CCc1ccc(N(CC(C)C)S(=O)(=O)c2ccc3[nH]c(=O)n(CC4CCOCC4)c3c2)cc1 [Compound 21, 2-oxo-3-(tetrahydropyran-4-ylmethyl)-2,3-dihydro-1H-benzimidazole-5-sulfonic acid (4-ethylphenyl)isobutylamide]
